Test results as given in PubChem BioAssay AID1963970 (Molecular Pharmacology Branch, DTP, NCI, 2024).

Tested on: 931267-113-T-J1-PDC multicell spheroid viability
Experiment: Anticancer human tumor 931267-113-T-J1-PDC patient-derived colon adenocarcinoma cell line growth inhibition [PI3K]
Conditions: for IC50: curve of first compound; for viability, T/C: stronger effect = lower value
Outline: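 Targeted small molecules plus PI3K inhibitors, half-log dose series from Cmax (default top 10 microM), were applied to heterotypic spheroids of cancer cells with HUVEC and MSCs. Viability indicated growth inhibition.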
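Also: viability read 7 days after compound addition.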

`Cn1ncc(Cl)c1-c1cc(C(=O)NC(CN)Cc2cccc(F)c2)sc1Cl` (configuration not stated) + CC(Nc1ncnc2nc[nH]c12)c1cc2cccc(Cl)c2c(=O)n1-c1ccccc1 was tested, and the IC50 (second compound 0.0316 µM) was 6.98 µM, the IC50 (second compound 0.1 µM) was 8.83 µM and the IC50 (second compound 0.316 µM) was 6.77 µM. The IC50 (second compound 1 µM) was 8.02 µM, the IC50 (second compound 3.16 µM) was 6.2 µM and the IC50 (second compound 10 µM) was 6 µM. The viability, T/C (second compound 0.0316 µM, first compound 0.0316 µM) was 100%, the viability, T/C (second compound 0.0316 µM, first compound 0.1 µM) was 105% and the viability, T/C (second compound 0.0316 µM, first compound 0.316 µM) was 101%. It also gave a viability, T/C (second compound 0.0316 µM, first compound 1 µM) of 86%, a viability, T/C (second compound 0.0316 µM, first compound 3.16 µM) of 85.7% and a viability, T/C (second compound 0.0316 µM, first compound 10 µM) of 35.1%. The viability, T/C (second compound 0.1 µM, first compound 0.0316 µM) was 106%, the viability, T/C (second compound 0.1 µM, first compound 0.1 µM) was 119% and the viability, T/C (second compound 0.1 µM, first compound 0.316 µM) was 96%. The viability, T/C (second compound 0.1 µM, first compound 1 µM) was 91.4%, the viability, T/C (second compound 0.1 µM, first compound 3.16 µM) was 86.8% and the viability, T/C (second compound 0.1 µM, first compound 10 µM) was 44.5%. It also gave a viability, T/C (second compound 0.316 µM, first compound 0.0316 µM) of 114%, a viability, T/C (second compound 0.316 µM, first compound 0.1 µM) of 109% and a viability, T/C (second compound 0.316 µM, first compound 0.316 µM) of 99.3%. The viability, T/C (second compound 0.316 µM, first compound 1 µM) was 94.5%, the viability, T/C (second compound 0.316 µM, first compound 3.16 µM) was 79% and the viability, T/C (second compound 0.316 µM, first compound 10 µM) was 35.7%. It also gave a viability, T/C (second compound 1 µM, first compound 0.0316 µM) of 107%, a viability, T/C (second compound 1 µM, first compound 0.1 µM) of 110% and a viability, T/C (second compound 1 µM, first compound 0.316 µM) of 92.5%. It also gave a viability, T/C (second compound 1 µM, first compound 1 µM) of 91.2%, a viability, T/C (second compound 1 µM, first compound 3.16 µM) of 80.6% and a viability, T/C (second compound 1 µM, first compound 10 µM) of 42.4%. For the same compound, the viability, T/C (second compound 3.16 µM, first compound 0.0316 µM) was 99.7%, the viability, T/C (second compound 3.16 µM, first compound 0.1 µM) was 97.3% and the viability, T/C (second compound 3.16 µM, first compound 0.316 µM) was 97.8%. It also gave a viability, T/C (second compound 3.16 µM, first compound 1 µM) of 86.9%, a viability, T/C (second compound 3.16 µM, first compound 3.16 µM) of 74.5% and a viability, T/C (second compound 3.16 µM, first compound 10 µM) of 33.4%. For the same compound, the viability, T/C (second compound 10 µM, first compound 0.0316 µM) was 92.9%, the viability, T/C (second compound 10 µM, first compound 0.1 µM) was 89.3% and the viability, T/C (second compound 10 µM, first compound 0.316 µM) was 90.2%. It also gave a viability, T/C (second compound 10 µM, first compound 1 µM) of 87.3%, a viability, T/C (second compound 10 µM, first compound 3.16 µM) of 67.3% and a viability, T/C (second compound 10 µM, first compound 10 µM) of 36.1%.
